Laboratory results: US12396988B2, “Methods of using muscarinic antagonists in the treatment of depression” (BOARD OF REGENTS, THE UNIVERSITY OF TEXAS SYSTEM, priority 2019, dated 2025)
Entries after “also recorded” stand apart in the source; their conditions may differ. Counter-ions that a name gives are not always drawn.

Assays:
rats [1] = settings: cited from earlier work
humans = settings: cited from earlier work
M2 receptor = biological target: T1, M2 receptor (Rattus norvegicus, UniProt P10980); assay: Cardiovascular assay (bradycardia test): antagonism of arecoline-induced bradycardia, telemetry; format: in vivo; settings: 1 mg/kg test compound s.c. before 10 mg/kg arecoline s.c., rats, FIG. 1
T1 construct: To measure changes in heart rate and mean arterial pressure, rats were implanted with telemetric transmitters; from tissue; host or cells: intact living rats (cardiovascular system, telemetry)
T1 sequence (P10980 1-466): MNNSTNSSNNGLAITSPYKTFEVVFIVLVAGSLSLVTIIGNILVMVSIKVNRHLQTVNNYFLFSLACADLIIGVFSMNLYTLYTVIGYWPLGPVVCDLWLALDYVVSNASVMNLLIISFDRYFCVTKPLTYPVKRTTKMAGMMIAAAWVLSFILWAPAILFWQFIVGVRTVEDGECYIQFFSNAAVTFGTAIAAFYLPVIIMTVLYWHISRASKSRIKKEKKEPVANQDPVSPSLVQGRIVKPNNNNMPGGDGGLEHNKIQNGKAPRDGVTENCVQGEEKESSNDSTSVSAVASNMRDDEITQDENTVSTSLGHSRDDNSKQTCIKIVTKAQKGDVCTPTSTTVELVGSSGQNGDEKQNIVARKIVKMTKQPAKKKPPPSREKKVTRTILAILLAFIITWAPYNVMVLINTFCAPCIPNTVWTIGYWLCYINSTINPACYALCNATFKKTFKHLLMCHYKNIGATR
Source text: All rats continued to have free access to food and water at all times.

rats [2] = assay: Forced swim test (FST); format: in vivo; settings: 3 mg/kg, 30 min before a 15-min swim, FIG. 4
Method: In the FST, the rats are injected with a test compound and 30 minutes later placed individually in a cylindrical container filled with water at room temperature. The rat's behavior is videotaped from above and is later scored by a trained observed who is blind to the drug conditions. Behavior is classified every 5 seconds over the 15 minute swim period as the following: immobility the rat is hanging quietly in the water, making only enough movement to keep its nose out of the water; swimming moving limbs in an active manner, climbing or actively moving its forepaws against the side of the chamber.
Rats of both sexes as well as rats from the Flinders straw were used for forced swim tests. The rats were injected with a saline control or CJ2100 (0.1 mg/kg, 0.3 mg/kg, 1 mg/kg, or 3 mg/kg) and 30 min later placed individually a cylindrical container (46 cm tall×20 cm, diameter) filled to 30 cm with 25° C. water for a single 15-min forced swim test. Rat behavior was videotaped from above and later scored by a trained observer who was blind to the drug conditions. Behavior was classified every 5 seconds over the 15 minute swim period as following: immobility rat was hanging quietly in the water, making only enough movement to keep its nose out of the water; swimming moving limbs in an active manner, climbing, or actively moving its forepaws against the side of the chamber. […]

rats [3] = assay: Cognitive evaluation: delayed-matching-to-sample (DMTS) touch-screen task, short-term memory; format: in vivo; settings: doses 0.1-3.2 mg/kg, FIG. 5 left panel
Source text: In cognitive evaluation tests, rats are exposed to a touch screen procedure that evaluates memory (delayed matching to sample, DMTS) and attention (psychomotor vigilance). In the DTMS, a commonly used recognition task to test short-term memory, the subject (a rat) is presented with a sample stimulus. In our procedure, when the rats touch the sample stimulus it terminates on the screen. After a pre-set delay two comparison stimuli appear. A touch response on the comparison stimulus that matches some physical property of the sample stimulus (i.e. color) results in reward delivery. Touching the incorrect comparison stimulus results in a timeout. Accuracy is then plotted vs different delay values to determine a “forgetting function”. This same procedure has been used by many others to assess the deleterious effects of various classes of psychoactive drugs.
(§1) Additional tests involved a novel touch-screen procedure that evaluated memory (delayed-matching-to-sample, DMTS) and attention (psychomotor vigilance, PVT).
In the DMTS, a commonly used recognition task to test short-term memory, rats were presented with a sample stimulus. When the rats touched the sample stimulus, it terminated on the screen. After a pre-set delay, two comparison stimuli appeared. […] Accuracy was then plotted vs. different delay values to determine a “forgetting function.”

rats [4] = assay: Cognitive evaluation: psychomotor vigilance (PVT) touch-screen task, attention; format: in vivo; settings: doses 0.1-10 mg/kg, FIG. 5 right panel
Source text: Psychomotor vigilance is used to evaluate drug effects of attention and vigilance over a period of time. Championed by David Dinges of U. Penn School of Medicine, it is a reaction timed task to measure the speed with which subjects responds to a visual stimulus. In the task, stimuli of varying intensity are presented to a subject (a rat) in randomized location on the screen following unpredictable intervals. The reaction time of the rat to the stimuli will provide a reliable attention threshold in each individual subject. Attention will decrease over time which serves as a baseline for degradation of sustained vigilance. For these studies, a stimulus is presented on a screen in a random location following a variable time interval (5, 15, 30 seconds). Duration of presentation of the stimulus is 2 seconds on first trial. If the correct stimulus is touched by the rat within 2 seconds, a mild reward is delivered and duration of stimulus presentation is […] by 0.25 seconds for subsequent trials (across 500 trials).
as §1
Psychomotor vigilance (PVT) is used to evaluate drug effects on attention and vigilance over a period of time. Championed by David Dinges of U. Penn. […]

rats [5] = assay: Drug discrimination test (arecoline vs saline; discriminative stimulus and rate-decreasing effects of arecoline); format: in vivo, Sprague-Dawley rats; settings: 1.0 mg/kg CJ2100, rats, FIG. 2
Source text: Rats are initially trained to nose-poke 10 times in any aperture to receive a dipper of Ensure (fixed ratio 10 FR-10 schedule of reinforcement). Nose-poke biases are noted, and the following assignments are made for the 2-nose-poke condition: 1) approximately half of the rats in each group will have the drug-associated aperture on the left, and the remaining rats will have the drug-associated aperture on the right; 2) the drug-associated aperture is assigned to the non-preferred side in half of the rats.
During training, the rats are injected with saline or their training drug and immediately placed in the chamber for a 5-min blackout, followed by a 20-min response period. […]
When these criteria have been met on 3 consecutive days, testing can begin. […] When the effects of putative antagonists are to be evaluated, these drugs are given 15 min before the start of the session, and the training drug is injected immediately before the rat is placed in the chamber. […]
Data analysis: Full generalization to a test compound is defined as >85% responding on the drug-appropriate aperture, and completing at least one ratio. Discrimination data are expressed as the percent responses on the drug-appropriate aperture, out of the total number of responses made in both apertures. Rates of responding are calculated as well: total number of responses/time during the light-on parts of the session. […]

[6] = 1.0 mg/kg scopolamine (Winger et al. 2020)

Structure (SMILES) | Effect on the discriminative stimulus of arecoline (rats [1]; [6]) | Effect on the rate-modifying effects of arecoline (rats [1]; [6]) | Ability to modify the discriminative stimulus effects of arecoline (rats [1]; compared with CJ2100) | Ability to modify the rate-suppressing effects of arecoline (rats [1]; compared with CJ2100) | Cognitive side effects (humans) | Anti-depressant effect in humans (humans; oral and intravenous treatment) | Effect on arecoline-induced bradycardia (M2 receptor) | Immobility in forced swim test (rats [2]) | Swimming in forced swim test (rats [2]) | Effect on ability of the rats to respond in DMTS task (cognitive effect) (rats [3]) | Mean duration of short term memory (DMTS) (rats [3]) | Effect on ability of the rats to respond in PVT task (cognitive effect) (rats [4]) | Mean titration duration of the stimulus (PVT) (rats [4]) | Shift to the right in the discriminative stimulus effects of arecoline (rats [5])
CN1[C@@H]2C[C@@H](OC(=O)[C@H](CO)c3ccccc3)C[C@H]1[C@@H]1O[C@@H]12 [scopolamine] | without affecting the discriminative stimulus of arecoline | appeared to increase the rate-modifying effects of arecoline | much less able than CJ2100 to modify | much less able than CJ2100 to modify | severe cognitive deficits; also recorded: cognitive impairment including memory disturbances | rapid anti-depressant effects |  |  |  |  |  |  |  | 
CN1CCC=C(c2nc(C3CC3)no2)C1 [CJ2100, 3-(3-alkyl-1,2,4-oxadiazol-5-yl)-1,2,5,6-tetrahydro-1-methylpylidine oxalate] |  |  |  |  |  |  | attenuates this effect; also recorded: complete attenuation of this effect | decrease in immobility | significant increase in swimming | did not modify the ability of the rats to respond; also recorded: silent | approximately 7 sec | did not modify the ability of the rats to respond; also recorded: silent | approximately 2 sec | ~1 log unit
